# From the supplement of paper PMC10307832
# Columns and labels:
# Assay in all cases: relative viability (nuclei count vs DMSO), 5 days (fraction); higher = more cells survive
# IU1-47 + AZD7762 = compound: CC1=CC(=C(N1C2=CC=C(C=C2)Cl)C)C(=O)CN3CCCCC3 [IU1-47] + NC(=O)Nc1cc(-c2cccc(F)c2)sc1C(=O)N[C@H]1CCCNC1 [AZD7762] (partner 0.2 µM)
# How it was run: (§1)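 Five library-drug doses in √10 steps were combined with a fixed anchor-drug dose, or a single drug was given alone, by pin tool to lung cancer cell lines in 1536-well plates the day after seeding. Nuclei were stained and counted after 5 days. Relative viability is the nuclei count in treated wells over that in vehicle wells, taken as the median of duplicate plates.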
# IU1-47 + Tozasertib = compound: CC1=CC(=C(N1C2=CC=C(C=C2)Cl)C)C(=O)CN3CCCCC3 [IU1-47] + Cc1cc(Nc2cc(N3CCN(C)CC3)nc(Sc3ccc(NC(=O)C4CC4)cc3)n2)n[nH]1 [Tozasertib] (partner 0.1 µM)
# How it was run: as §1
# IU1-47 + Pemetrexed = compound: CC1=CC(=C(N1C2=CC=C(C=C2)Cl)C)C(=O)CN3CCCCC3 [IU1-47] + Nc1nc2[nH]cc(CCc3ccc(C(=O)N[C@@H](CCC(=O)O)C(=O)O)cc3)c2c(=O)[nH]1 [Pemetrexed] (partner 0.2 µM)
# How it was run: as §1
# FG-4592 + Phenformin = compound: Cc1nc(C(=O)NCC(=O)O)c(O)c2ccc(Oc3ccccc3)cc12 [FG-4592] + N=C(N)NC(=N)NCCc1ccccc1 [Phenformin] (partner 250 µM)
# How it was run: as §1
Cell Line,relative viability (IU1-47 + AZD7762; first compound 0.08 µM),relative viability (IU1-47 + AZD7762; first compound 0.253 µM),relative viability (IU1-47 + AZD7762; first compound 0.8 µM),relative viability (IU1-47 + AZD7762; first compound 2.53 µM),relative viability (IU1-47 + AZD7762; first compound 8 µM),relative viability (IU1-47 + Tozasertib; first compound 0.08 µM),relative viability (IU1-47 + Tozasertib; first compound 0.253 µM),relative viability (IU1-47 + Tozasertib; first compound 0.8 µM),relative viability (IU1-47 + Tozasertib; first compound 8 µM),relative viability (IU1-47 + Pemetrexed; first compound 0.08 µM),relative viability (IU1-47 + Pemetrexed; first compound 0.253 µM),relative viability (IU1-47 + Pemetrexed; first compound 0.8 µM),relative viability (IU1-47 + Pemetrexed; first compound 2.53 µM),relative viability (IU1-47 + Pemetrexed; first compound 8 µM),relative viability (FG-4592 + Phenformin; first compound 0.08 µM),relative viability (FG-4592 + Phenformin; first compound 0.253 µM),relative viability (FG-4592 + Phenformin; first compound 0.8 µM),relative viability (FG-4592 + Phenformin; first compound 2.53 µM),relative viability (FG-4592 + Phenformin; first compound 8 µM),relative viability (IU1-47 + Tozasertib; first compound 2.53 µM)
201T,0.696,0.592,0.633,0.504,0.78,0.991,0.947,1.05,0.762,0.458,0.386,0.317,0.261,0.389,0.399,0.408,0.423,0.437,0.493,
A549,,,,,,,,,,,,,,,0.166,0.154,0.159,0.191,0.216,
A-427,0.747,0.908,0.596,0.82,0.562,0.201,0.208,0.236,0.212,1.06,1,0.993,1,0.937,0.27,0.313,0.341,0.335,0.414,
ABC-1,0.765,0.671,0.774,,0.729,0.188,0.165,0.158,0.193,,,,,,0.232,0.201,0.211,0.258,0.254,
BEN,0.677,0.638,0.761,0.535,0.739,0.499,0.444,0.49,0.506,0.732,0.765,0.899,0.523,0.674,0.234,0.231,0.268,0.288,0.306,0.631
CAL-12T,0.622,0.695,0.695,0.601,0.629,0.408,0.326,0.34,0.287,1.2,1.39,1.15,1.34,1.04,0.593,0.51,0.56,0.546,0.542,0.318
COR-L23,,,,,,0.184,0.183,0.206,0.18,0.212,0.18,0.199,0.195,0.208,0.467,0.375,0.477,0.411,0.437,0.207
COR-L 105,,,,,,0.372,0.387,0.379,0.326,1.12,1.17,0.93,1.12,1.02,0.46,0.432,0.456,0.437,0.45,0.355
ChaGo-K-1,0.934,1.01,0.91,0.91,0.954,0.203,0.216,0.263,0.228,0.26,0.257,0.282,0.249,0.268,0.525,0.478,0.44,0.466,0.492,0.215
EKVX,0.894,0.866,0.725,,0.756,0.418,0.433,0.367,0.349,0.407,0.406,0.423,,0.453,0.205,0.237,0.224,0.221,0.262,0.341
EMC-BAC-2,1.1,1.24,1.09,1.07,1.07,0.279,0.305,0.285,0.271,0.458,0.436,0.556,0.459,0.468,0.496,0.516,0.414,0.509,0.454,0.305
EPLC-272H,0.232,0.205,0.226,,0.217,0.228,0.347,0.246,0.145,0.332,0.422,0.316,0.327,0.313,0.323,0.237,0.268,0.274,0.31,
H3255,1.19,1.01,1.08,0.877,0.893,0.725,0.636,0.643,0.752,0.624,0.544,0.63,0.605,0.511,0.359,0.345,0.361,0.33,0.323,0.416
HARA,0.394,,0.359,0.176,0.273,0.0876,0.0862,0.0879,0.0969,0.258,,0.199,0.26,0.22,0.412,0.394,0.512,0.509,0.477,
HCC-15,1.15,1.5,1.4,,1.23,0.385,0.432,0.354,0.227,0.229,0.219,0.226,0.218,0.228,0.524,0.424,0.533,0.462,0.503,
HCC-44,1,1.07,1.04,0.959,1.04,1.13,1.16,0.968,1.22,0.706,0.685,0.647,0.668,0.696,0.107,0.184,,0.145,0.151,0.995
HCC-78,0.606,0.546,0.638,0.654,0.609,0.37,0.508,0.479,0.404,0.898,0.889,0.929,0.865,0.862,0.683,0.621,0.809,0.723,0.716,0.372
HCC-366,0.281,0.357,0.355,0.267,0.236,0.15,0.217,0.132,0.112,0.176,0.157,0.192,0.211,0.19,0.554,0.608,0.626,0.615,0.599,0.154
